What was measured:
D(3) dopamine receptor = D(3) dopamine receptor (Homo sapiens, UniProt P35462); assay: Displacement of [3H]-N-methylspiperone from recombinant human D3R expressed in HEK cell membranes after 90 mins by scintillation counting method
[1] = molecular target: Sodium-dependent dopamine transporter (Homo sapiens, UniProt Q01959); assay: Displacement of [3H]-WIN35428 from recombinant human DAT expressed in HEK cell membranes after 90 mins by scintillation counting method
Chain of Sodium-dependent dopamine transporter (Q01959 whole entry): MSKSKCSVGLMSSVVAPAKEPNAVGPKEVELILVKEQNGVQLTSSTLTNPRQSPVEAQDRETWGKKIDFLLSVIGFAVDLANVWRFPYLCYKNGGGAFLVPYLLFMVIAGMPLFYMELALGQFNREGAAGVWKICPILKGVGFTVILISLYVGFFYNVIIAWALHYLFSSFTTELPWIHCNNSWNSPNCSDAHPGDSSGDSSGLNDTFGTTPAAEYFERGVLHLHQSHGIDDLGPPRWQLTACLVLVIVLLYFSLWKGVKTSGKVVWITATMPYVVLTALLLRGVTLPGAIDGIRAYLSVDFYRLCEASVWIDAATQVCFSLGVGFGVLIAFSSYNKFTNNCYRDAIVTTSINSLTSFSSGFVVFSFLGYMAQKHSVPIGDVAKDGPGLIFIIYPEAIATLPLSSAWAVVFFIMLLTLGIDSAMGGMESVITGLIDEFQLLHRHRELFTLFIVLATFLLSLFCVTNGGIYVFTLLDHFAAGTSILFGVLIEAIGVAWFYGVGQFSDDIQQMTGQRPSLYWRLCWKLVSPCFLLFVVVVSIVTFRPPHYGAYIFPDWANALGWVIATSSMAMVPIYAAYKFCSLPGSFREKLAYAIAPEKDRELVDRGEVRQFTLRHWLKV

Chain of D(3) dopamine receptor (P35462 as listed by the source): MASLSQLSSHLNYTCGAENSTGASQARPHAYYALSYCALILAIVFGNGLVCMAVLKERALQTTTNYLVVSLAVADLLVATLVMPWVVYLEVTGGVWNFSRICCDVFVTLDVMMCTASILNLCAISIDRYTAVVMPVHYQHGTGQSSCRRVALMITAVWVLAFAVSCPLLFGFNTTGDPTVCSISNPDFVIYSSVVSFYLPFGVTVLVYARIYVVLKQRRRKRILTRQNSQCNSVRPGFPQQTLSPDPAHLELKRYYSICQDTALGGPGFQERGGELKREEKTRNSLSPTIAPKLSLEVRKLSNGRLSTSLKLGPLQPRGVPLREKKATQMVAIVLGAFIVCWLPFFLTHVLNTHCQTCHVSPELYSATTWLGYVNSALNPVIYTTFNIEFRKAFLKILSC

Ki (D(3) dopamine receptor): 4.7 µM | Ki [1]: 1.8 µM
Structure (SMILES): CCCCCCCCCCC[C@@H]1CCN[C@H](C(=O)NCC(O)CO)C1 (some centres not stated)

From BindingDB's records for doi:10.1021/acs.jmedchem.8b00401 (2019)
